Reference: ChEMBL document CHEMBL1201862, “PubChem BioAssay data set” (2004)
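Grown in 96-well plates, cells were treated for 48 hours with each compound at five concentrations. Insufficient inhibition: endpoint recorded as highest concentration tested. At the GI50, growth is halved.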 The source made the active and inactive calls. Rule as the data show it: active = GI50 up to about 1.1 µM and inactive = higher.

Assays:
Experiment in all cases: NCI tumour cell line growth inhibition, 48 h
[1] = test system: 786-0
[2] = test system: CCRF-CEM
[3] = test system: COLO 205
[4] = test system: EKVX
[5] = test system: HOP-62
[6] = test system: HT-29
[7] = test system: M14
[8] = test system: MDA-MB-231
[9] = test system: MOLT-4
[10] = test system: NCI-H23
[11] = test system: OVCAR-8
[12] = test system: RPMI-8226
[13] = test system: SF-295
[14] = test system: SK-MEL-28
[15] = test system: SN12C
[16] = test system: SW-620
[17] = test system: UO-31
[18] = test system: RXF 393
[19] = test system: K562
[20] = test system: NCI-H522

Measured: GI50

N/C(=N\OC(=O)NC(Cl)=C(Cl)Cl)c1cc(C(F)(F)F)cc(C(F)(F)F)c1
inactive: [1] 16.2 µM | [2] 4.65 µM | [3] 15.7 µM | [4] 13.7 µM | [5] 17.9 µM | [6] 16.9 µM | [7] 25.2 µM | [8] 15.8 µM | [9] 9.48 µM | [10] 34.9 µM | [11] 20.1 µM | [12] 12.5 µM | [13] 17.5 µM | [14] 17.4 µM | [15] 24.3 µM | [16] 18.9 µM | [17] 18 µM

CCC(C)[C@H](NC(=O)[C@H](Cc1ccccc1)NC(=O)N(CC)c1ccccc1)C(=O)N[C@@H](CC(C)C)C(=O)OC (stereo partly drawn)
inactive: [1] 40.6 µM | [2] 21.4 µM | [3] 60.1 µM | [4] 49.3 µM | [5] 33 µM | [7] 37.6 µM | [8] 27.7 µM | [9] 10.7 µM | [10] 31 µM | [11] 34 µM | [12] 8.93 µM | [18] 74.1 µM | [13] 59.7 µM | [14] 40.3 µM | [15] 38.6 µM | [16] 31.6 µM | [17] 24.3 µM

Cc1c2cccc-2c(N(C)C)cc2c1[nH]c1ccccc12
inactive: [1] 2.97 µM | [2] 3.83 µM | [3] 1.65 µM | [4] 1.96 µM | [5] 2.71 µM | [6] 4.81 µM | [7] 5.32 µM | [8] 10.1 µM | [9] 4.35 µM | [10] 8.93 µM | [11] 3.21 µM | [12] 2.07 µM | [13] 10.4 µM | [14] 2.02 µM | [15] 6.67 µM | [16] 4.17 µM | [17] 2.53 µM

O=c1[nH]nc(Cc2ccc(Cl)cc2)n1Nc1ccccc1
inactive: [1] 73.6 µM | [2] > 100 µM | [3] > 100 µM | [4] > 100 µM | [5] 79.6 µM | [6] > 100 µM | [19] > 100 µM | [7] > 100 µM | [8] > 100 µM | [9] > 100 µM | [10] > 100 µM | [11] > 100 µM | [13] > 100 µM | [14] > 100 µM | [15] > 100 µM | [16] > 100 µM | [17] > 100 µM

COc1ccccc1/C=N/C12CC3CC(CC(C3)C1)C2
inactive: [1] > 100 µM | [2] > 100 µM | [3] > 100 µM | [4] > 100 µM | [5] > 100 µM | [6] > 100 µM | [19] 32.4 µM | [7] > 100 µM | [9] > 100 µM | [10] > 100 µM | [20] > 100 µM | [11] > 100 µM | [12] > 100 µM | [18] > 100 µM | [13] > 100 µM | [14] > 100 µM | [15] > 100 µM | [16] > 100 µM | [17] > 100 µM

COc1ccc(C(=O)O/N=C2/CCCCC2CN(C)C)cc1 (stereo not drawn)
inactive: [1] > 100 µM | [2] > 100 µM | [3] > 100 µM | [4] > 100 µM | [5] > 100 µM | [6] > 100 µM | [19] > 100 µM | [7] > 100 µM | [9] > 100 µM | [10] > 100 µM | [20] > 100 µM | [11] > 100 µM | [12] > 100 µM | [18] > 100 µM | [13] > 100 µM | [14] > 100 µM | [15] > 100 µM | [16] > 100 µM | [17] > 100 µM

COc1cc2c(Cc3cc(OCc4ccccc4)ccc3N)nccc2c(OC)c1OC
inactive: [1] > 10 µM | [2] > 10 µM | [3] > 10 µM | [4] > 10 µM | [5] > 10 µM | [6] > 10 µM | [19] > 10 µM | [7] > 10 µM | [9] > 10 µM | [10] > 10 µM | [20] > 10 µM | [11] > 10 µM | [12] > 10 µM | [18] > 10 µM | [13] > 10 µM | [14] > 10 µM | [15] > 10 µM | [16] > 10 µM | [17] > 10 µM

CCCCN(CC)CC(C(C)=O)c1c(O)c2ccccc2oc1=O (stereo not drawn)
inactive: [1] > 100 µM | [2] > 100 µM | [3] > 100 µM | [4] > 100 µM | [5] > 100 µM | [6] > 100 µM | [19] > 100 µM | [7] > 100 µM | [9] > 100 µM | [10] 15.4 µM | [20] > 100 µM | [11] > 100 µM | [12] > 100 µM | [18] > 100 µM | [13] > 100 µM | [14] > 100 µM | [15] > 100 µM | [16] > 100 µM | [17] > 100 µM

COc1ccc(-c2cc(-c3ccco3)c(C#N)c(=O)n2C2OC(OC(=O)c3ccccc3)C(OC(=O)c3ccccc3)C2OC(=O)c2ccccc2)cc1 (stereo not drawn)
inactive: [1] > 100 µM | [2] > 100 µM | [3] > 100 µM | [4] > 100 µM | [5] 52.6 µM | [6] > 100 µM | [19] > 100 µM | [7] > 100 µM | [9] > 100 µM | [10] > 100 µM | [20] 63.5 µM | [11] > 100 µM | [12] > 100 µM | [18] 14.4 µM | [13] 50.2 µM | [14] > 100 µM | [15] > 100 µM | [16] > 100 µM | [17] 46 µM

O=C(Cc1csc(N/N=C2\C(=O)Nc3ccccc32)n1)Nc1ccccc1
inactive: [1] 17.7 µM | [3] 55.1 µM | [4] 19.9 µM | [5] 18.1 µM | [6] 27 µM | [7] 38.3 µM | [8] 28.8 µM | [9] 42.5 µM | [10] 38.9 µM | [11] 21.1 µM | [18] 62.7 µM | [13] 28.9 µM | [14] 21 µM | [15] 36.6 µM | [16] 33 µM | [17] 25.3 µM

C[C@]12CCC3[C@@H](CC[C@@H]4c5nonc5CC[C@]34C)C1CC[C@@H]2O (stereo partly drawn)
inactive: [1] 25.3 µM | [2] 22 µM | [3] 30.4 µM | [4] 23.8 µM | [5] 28.4 µM | [6] 32.7 µM | [19] 34.3 µM | [7] 23.6 µM | [9] 23.3 µM | [10] 32.1 µM | [20] 17.8 µM | [11] 35.8 µM | [12] 14.5 µM | [18] 24.8 µM | [13] 34.8 µM | [14] 21.1 µM | [15] 22.1 µM | [16] 29.3 µM | [17] > 10 µM
